# Values quoted from earlier work, collected in PubChem BioAssay AID1259409 (Chemical Carcinogenesis Research Information System (CCRIS), 2018).
# System: rodent chemically induced tumor inhibition, incidence and multiplicity
# Assay: CCRIS tumor inhibitor studies
compound,measurement,setting,value
COc1ccc2c(c1)c(CC(=O)O)c(C)n2C(=O)c1ccc(Cl)cc1,"tumour outcome (control, treated, inhibition, significance)","Carcinogen: 1,2-DIMETHYLHYDRAZINE DIHYDROCHLORIDE, 306-37-6, Dose [Inhibitor]: 20 MG/L TAP WATER DAILY FOR 32 WK STARTING SIMULTANEOUSLY WITH CARCINOGEN TREATMENT (STUDY DURATION: 32 WK), Route [Inhibitor]: ORAL, Species: RAT, Strain/Sex: SPRAGUE-DAWLEY/MALE, Target Tissue: Type of Lesion: LARGE INTESTINE: TUMOR, Dose [Carcinogen]: 20 MG/KG BW 1/WK FOR 20 WK, Promoter: NONE USED","88%, 56%, 36%, p<0.005"
same,"tumour outcome (control, treated, inhibition, significance)","Carcinogen: 1,2-DIMETHYLHYDRAZINE DIHYDROCHLORIDE, 306-37-6, Dose [Inhibitor]: 20 MG/L TAP WATER DAILY FOR 32 WK STARTING SIMULTANEOUSLY WITH CARCINOGEN TREATMENT (STUDY DURATION: 32 WK), Route [Inhibitor]: ORAL, Species: RAT, Strain/Sex: SPRAGUE-DAWLEY/MALE, Target Tissue: Type of Lesion: SMALL INTESTINE: TUMOR, Dose [Carcinogen]: 20 MG/KG BW 1/WK FOR 20 WK, Promoter: NONE USED","46%, 31%, 33%, not significant"
same,"tumour outcome (control, treated, inhibition, significance)","Carcinogen: 1,2-DIMETHYLHYDRAZINE, 540-73-8, Dose [Inhibitor]: 20 MG/L IN DRINKING WATER DAILY FOR 15 WK STARTING 34 D AFTER CARCINOGEN ADMINISTRATION (STUDY DURATION: 20 WK), Route [Inhibitor]: ORAL, Species: RAT, Strain/Sex: SPRAGUE-DAWLEY/MALE, Target Tissue: Type of Lesion: INTESTINE: TUMOR, Dose [Carcinogen]: 30 MG/KG BW ONCE, Promoter: NONE USED","9/10 (90%), 2/9 (22%), 76%, p 0.0019"
same,"tumour outcome (control, treated, inhibition, significance)","Carcinogen: 1-HYDROXYANTHRAQUINONE, 129-43-1, Dose [Inhibitor]: 0, 16 PMM IN DRINKING WATER FOR 48 WK (STUDY DURATION: 48 WK), Route [Inhibitor]: ORAL, Species: RAT, Strain/Sex: ACI/MALE, Target Tissue: Type of Lesion: LARGE BOWEL: ADENOCARCINOMA, Dose [Carcinogen]: 1.5% IN DIET FOR 48 WK, Promoter: NONE USED","7/27 (26%), 0/14 (0%), 100%), p= 0.03"
same,"tumour outcome (control, treated, inhibition, significance)","Carcinogen: 1-HYDROXYANTHRAQUINONE, 129-43-1, Dose [Inhibitor]: 0, 16 PPM IN DRINKING WATER FOR 48 WK (STUDY DURATION: 48 WK), Route [Inhibitor]: ORAL, Species: RAT, Strain/Sex: ACI/MALE, Target Tissue: Type of Lesion: CECUM: ADENOCARCINOMA, Dose [Carcinogen]: 1.5% IN DIET FOR 48 WK, Promoter: NONE USED","3/27 (11%), 0/14 (0%), 100%, not calculated"
same,"tumour outcome (control, treated, inhibition, significance)","Carcinogen: 1-HYDROXYANTHRAQUINONE, 129-43-1, Dose [Inhibitor]: 0, 16 PPM IN DRINKING WATER FOR 48 WK (STUDY DURATION: 48 WK), Route [Inhibitor]: ORAL, Species: RAT, Strain/Sex: ACI/MALE, Target Tissue: Type of Lesion: CECUM: ADENOMA, Dose [Carcinogen]: 1.5% IN DIET FOR 48 WK, Promoter: NONE USED","2/27 (7%), 0/14 (0%), 100%, not calculated"
same,"tumour outcome (control, treated, inhibition, significance)","Carcinogen: 1-HYDROXYANTHRAQUINONE, 129-43-1, Dose [Inhibitor]: 0, 16 PPM IN DRINKING WATER FOR 48 WK (STUDY DURATION: 48 WK), Route [Inhibitor]: ORAL, Species: RAT, Strain/Sex: ACI/MALE, Target Tissue: Type of Lesion: COLON: ADENOCARCINOMA, Dose [Carcinogen]: 1.5% IN DIET FOR 48 WK, Promoter: NONE USED","5/27 (19%), 0/14 (0%), 100%, not calculated"
same,"tumour outcome (control, treated, inhibition, significance)","Carcinogen: 1-HYDROXYANTHRAQUINONE, 129-43-1, Dose [Inhibitor]: 0, 16 PPM IN DRINKING WATER FOR 48 WK (STUDY DURATION: 48 WK), Route [Inhibitor]: ORAL, Species: RAT, Strain/Sex: ACI/MALE, Target Tissue: Type of Lesion: COLON: ADENOMA OR ADENOCARCINOMA, Dose [Carcinogen]: 1.5% IN DIET FOR 48 WK, Promoter: NONE USED","9/27 (33%), 0/14 (0%), 100%, p<0.01"
same,"tumour outcome (control, treated, inhibition, significance)","Carcinogen: 1-HYDROXYANTHRAQUINONE, 129-43-1, Dose [Inhibitor]: 0, 16 PPM IN DRINKING WATER FOR 48 WK (STUDY DURATION: 48 WK), Route [Inhibitor]: ORAL, Species: RAT, Strain/Sex: ACI/MALE, Target Tissue: Type of Lesion: COLON: ADENOMA, Dose [Carcinogen]: 1.5% IN DIET FOR 48 WK, Promoter: NONE USED","4/27 (15%), 0/14 (0%), 100%, not calculated"
same,outcome,"Carcinogen: 1-HYDROXYANTHRAQUINONE, 129-43-1, Dose [Inhibitor]: 0, 16 PPM IN DRINKING WATER FOR 48 WK (STUDY DURATION: 48 WK), Route [Inhibitor]: ORAL, Species: RAT, Strain/Sex: ACI/MALE, Target Tissue: Type of Lesion: FORESTOMACH: PAPILLOMA, Dose [Carcinogen]: 1.5% IN DIET FOR 48 WK, Promoter: NONE USED","14/27 (52%), 2/14 (14%), p= 0.01"
same,"tumour outcome (control, treated, inhibition, significance)","Carcinogen: 1-HYDROXYANTHRAQUINONE, 129-43-1, Dose [Inhibitor]: 0, 16 PPM IN DRINKING WATER FOR 48 WK (STUDY DURATION: 48 WK), Route [Inhibitor]: ORAL, Species: RAT, Strain/Sex: ACI/MALE, Target Tissue: Type of Lesion: FORESTOMACH: TUMOR, Dose [Carcinogen]: 1.5% IN DIET FOR 48 WK, Promoter: NONE USED","14/27 (52%), 2/14 (14%), 73%, p<0.01"
same,"tumour outcome (control, treated, inhibition, significance)","Carcinogen: 1-HYDROXYANTHRAQUINONE, 129-43-1, Dose [Inhibitor]: 0, 16 PPM IN DRINKING WATER FOR 48 WK (STUDY DURATION: 48 WK), Route [Inhibitor]: ORAL, Species: RAT, Strain/Sex: ACI/MALE, Target Tissue: Type of Lesion: LARGE BOWEL: ADENOMA, Dose [Carcinogen]: 1.5% IN DIET FOR 48 WK, Promoter: NONE USED","5/27 (19%), 0/14 (0%), 100%, not calculated"
same,"tumour outcome (control, treated, inhibition, significance)","Carcinogen: 1-HYDROXYANTHRAQUINONE, 129-43-1, Dose [Inhibitor]: 0, 16 PPM IN DRINKING WATER FOR 48 WK (STUDY DURATION: 48 WK), Route [Inhibitor]: ORAL, Species: RAT, Strain/Sex: ACI/MALE, Target Tissue: Type of Lesion: LARGE BOWEL: TUMOR, Dose [Carcinogen]: 1.5% IN DIET FOR 48 WK, Promoter: NONE USED","12/27 (44%), 0/14 (0%), 100%, not calculated"
same,"tumour outcome (control, treated, inhibition, significance)","Carcinogen: 1-HYDROXYANTHRAQUINONE, 129-43-1, Dose [Inhibitor]: 0, 16 PPM IN DRINKING WATER FOR 48 WK (STUDY DURATION: 48 WK), Route [Inhibitor]: ORAL, Species: RAT, Strain/Sex: ACI/MALE, Target Tissue: Type of Lesion: LIVER: NEOPLASTIC NODULE, Dose [Carcinogen]: 1.5% IN DIET FOR 48 WK, Promoter: NONE USED","1/27 (4%), 0/14 (0%), 100%, not calculated"
same,"tumour outcome (control, treated, inhibition, significance)","Carcinogen: 1-HYDROXYANTHRAQUINONE, 129-43-1, Dose [Inhibitor]: 0, 16 PPM IN DRINKING WATER FOR 48 WK (STUDY DURATION: 48 WK), Route [Inhibitor]: ORAL, Species: RAT, Strain/Sex: ACI/MALE, Target Tissue: Type of Lesion: LIVER: TUMOR, Dose [Carcinogen]: 1.5% IN DIET FOR 48 WK, Promoter: NONE USED","1/27 (4%), 0/14 (0%), 100%, not calculated"
same,"tumour outcome (control, treated, inhibition, significance)","Carcinogen: 2-ACETYLAMINOFLUORENE, 53-96-3, Dose [Inhibitor]: 0, 10 PPM IN DRINKING WATER FOR 18 WK BEGINNING 1 WK PRIOR TO CARCINOGEN TREATMENT (STUDY DURATION: 36 WK), Route [Inhibitor]: ORAL, Species: RAT, Strain/Sex: ACI/N/MALE, Target Tissue: Type of Lesion: LIVER: TUMOR, Dose [Carcinogen]: 200 PPM IN DIET FOR 16 WK, Promoter: NONE USED","10/10 (100%), 1/10 (10%), 90%, p=0.00006"
same,outcome,"Carcinogen: 4-HYDROXYBUTYL(BUTYL)NITROSAMINE [3817-11-6], Dose [Inhibitor]: 20 MG/KG IN DIET 1 WK AFTER CARCINOGEN (STUDY DURATION: 32 WK), Route [Inhibitor]: DIET, Species: MOUSE, Strain/Sex: B6D2F1/MALE, Target Tissue: Type of Lesion: BLADDER: CARCINOMA, Dose [Carcinogen]: 7.5 MG/WK FOR 12 WK","32, 6, 81%"
same,outcome,"Carcinogen: 4-HYDROXYBUTYL(BUTYL)NITROSAMINE [3817-11-6], Dose [Inhibitor]: 20 MG/KG IN DIET 1 WK AFTER LAST CARCINOGEN DOSE (STUDY DURATION: 61 WK), Route [Inhibitor]: DIET, Species: MOUSE, Strain/Sex: B6D2F1/MALE, Target Tissue: Type of Lesion: BLADDER: CARCINOMA, Dose [Carcinogen]: 7.5 MG/WK FOR 12 WK","66, 26, 61%"
same,outcome,"Carcinogen: 4-HYDROXYBUTYL(BUTYL)NITROSAMINE [3817-11-6], Dose [Inhibitor]: 20 MG/KG IN DIET 1 WK AFTER LAST CARCINOGEN DOSE FOR 12 WK (STUDY DURATION: 42 WK), Route [Inhibitor]: DIET, Species: MOUSE, Strain/Sex: B6D2F1/MALE, Target Tissue: Type of Lesion: BLADDER: CARCINOMA, Dose [Carcinogen]: 7.5 MG/WK FOR 12 WK","31, 16, 48%"
